Active and inactive are the calls of the source.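 Rule for the calls: active = compounds reducing C. glabrata growth on glycerol with a fitted half-effect dose within twice the top tested dose; inconclusive = flat curve with moderate growth loss, or an unreliable fit; inactive = the rest.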

The test system of one test is Candida glabrata growth in glycerol, OD600, 48 h. Nature of the test: C. glabrata growth inhibition on glycerol, dose response, glycerol medium, OD600, dry powder (AID 602186).
Details: not given
Take `Cc1ccc(C(=O)Nc2nc(-c3ccccn3)cs2)cc1`: the concentration at half-maximal activity (AC50) (in general, the concentration at which the activity in the assay is half-maximal) is 3.28 µM.
Still for that read-out and setting: next, `O=C(Nc1nc(-c2ccccn2)cs1)c1ccc(Cl)s1`: 1.38 µM.
Turning to `O=C(Nc1nc(-c2ccccn2)cs1)c1ccc(Br)s1`, the half-maximal activity concentration (AC50) is 1.2 µM.
For the compound `O=C(NNC(=S)Nc1ccc(Cl)c(Cl)c1)c1ccccn1`, the AC50 is 0.119 µM.
Same read-out and setting: next, `Oc1c(C(c2ccc(Cl)cc2)N2CCCC2)ccc2cccnc12` (centres undefined): 13.4 µM; `O=C(Oc1c(Cl)cc(Cl)c2cccnc12)c1ccco1`: 0.617 µM.
In the case of `O=C(Nc1nc(-c2ccccn2)cs1)c1ccccc1`, the AC50 is 11.5 µM.
In the case of `CCOC(=O)N1C(=O)C2(CCCCC2)N(c2ccc(C)cc2)C1=S`, the concentration at half-maximal activity (AC50) is 0.141 µM.
As to `O=C(Nc1nnc(-c2ccc3c(c2)CCCC3)o1)c1ccccc1`, the AC50 is 10.3 µM.
For the compound `C=CCNC(=S)N/N=C(\C)c1ccccn1`, the AC50 was 0.508 µM.
`CN1CCN(C(c2ccc(C(F)(F)F)cc2)c2ccc3cccnc3c2O)CC1` (centres undefined): the AC50 is 2.96 µM.
For `Cc1ccc(-c2nc3c(Cl)cc(Cl)cc3c(=O)n2O)cc1`, the AC50 was 1.39 µM.
Take `Oc1c(C(c2ccccc2Cl)N2CCCCC2)ccc2cccnc12` (centres undefined): the AC50 was 9.06 µM.
For the compound `C/C(=N\NC(=O)c1cc2ccccc2cc1O)c1ccccn1`, the AC50 was 8.89 µM.
`CCCC(=O)NC(c1cccs1)c1cc(Cl)c2cccnc2c1O` (centres undefined): the half-maximal activity concentration (AC50) is 2.14 µM.
On to `Oc1c(CN2CCc3ccccc3C2)cc(Cl)c2cccnc12`, for which the half-maximal activity concentration (AC50) is 13.6 µM.

Test system in a further test: not listed separately
The test is described as above. The note with it: Candida glabrata growth in glycerol, OD600, 48 h; at 19.5 µM (top of the series).
Turning to `COc1ccc(-c2nnc(NC(=O)c3ccc(S(=O)(=O)N4CCCc5ccccc54)cc3)o2)cc1`, the activity change, negative = inhibition is -21.8% (inactive).
Turning to `O=C(Nc1nnc(-c2ccc3c(c2)CCCC3)o1)c1ccc(Cl)cc1Cl`, the activity change, negative = inhibition was -18.1% (inactive).
With `O=C(Nc1nc(-c2ccc3c(c2)CCCC3)cs1)c1ccccc1`, the activity change, negative = inhibition was 25.4% (inactive).
On to `Cc1cc(C)n(-c2nc3ccccc3c(=O)n2OCC#N)n1`, for which the activity change, negative = inhibition is -19.2% (inactive).
Turning to `NC(=O)c1cccc(C(=O)Nc2nc(-c3ccc4c(c3)CCCC4)cs2)c1`, the activity change, negative = inhibition was 9.1% (inactive).
Take `Cc1ccc(C(=O)Nc2nnc(-c3ccccc3)o2)cc1C`: the activity change, negative = inhibition is 5.05% (inactive).
Turning to `O=C(Nc1nc(-c2ccccc2)cs1)c1ccc(Br)s1`, the activity change, negative = inhibition was -6.9% (inactive).

Staying with this test, now noted: Candida glabrata growth in glycerol, OD600, 48 h; at 23.5 µM (top of the series).
For the compound `Oc1c(CN2CCN(c3ccccc3)CC2)cc(Cl)c2cccnc12`, the activity change, negative = inhibition is -34.4% (inactive).

(Values after PubChem BioAssay AID602186 (Broad Institute, 2012).)
